Source: patent US8097443B2, “Nucleotidyltransferases with enhanced nucleotide triphosphate flexibility” (priority 2007, dated 2012)
Where two headings read alike, the source gives them in different places.

Experiments:
[1] = system: UDP-sugar pyrophosphorylase (Usp); settings: Thermus caldophilus Usp, literature; cited from earlier work
RmlA Q83S [2] = biological target: T1, RmlA Q83S (Salmonella typhimurium, UniProt P26393, Q83S); assay: Relative activity of RmlA mutant Q83S with alternative NTPs; type: biochemical, Salmonella enterica typhimurium LT2; settings: 10 mM Glucose-1-phosphate, 0.1-10 μM enzyme, 5 mM NTP, 10 mM MgCl2, pH 8.0, 37° C.
T1 construct: His6 (pET28a) (N); made in house; host or cells: Escherichia coli BL21 (DE3)
T1 sequence (P26393 whole entry Q83S): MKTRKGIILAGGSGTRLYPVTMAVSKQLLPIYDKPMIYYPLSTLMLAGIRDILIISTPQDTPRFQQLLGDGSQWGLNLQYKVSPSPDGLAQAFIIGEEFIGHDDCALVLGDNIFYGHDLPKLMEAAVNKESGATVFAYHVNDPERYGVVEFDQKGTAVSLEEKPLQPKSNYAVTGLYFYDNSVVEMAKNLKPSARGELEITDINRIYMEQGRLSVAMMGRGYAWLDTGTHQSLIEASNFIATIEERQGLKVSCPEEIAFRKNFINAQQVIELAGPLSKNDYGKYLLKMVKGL
Excerpt: (§1) RmlA mutagenesis—RmlA mutants were generated with the Quikchange mutagenesis kit (Stratagene, La Jolla, Calif., USA) using the wt RmlA-pET28a parent expression plasmid as the template and the primers indicated in Table 1. Individual progeny plasmids were confirmed by DNA sequencing to carry the desired mutations. Driven by these mutant plasmids, the corresponding RmlA variants were subsequently expressed and purified as described above.
(§2) Enzymatic Reactions—The enzyme assay was accomplished via slight modification of previously reported methods (Jiang et al. (2000) J. Am. Chem. Soc. 122, 6803-6804; Jiang et al. (2001) Angew. Chem., Int. Ed. 40, 1502-1505; Jiang et al. (2003) Chem Bio Chem 4, 443-446; Barton et al. (2002) Proc. Natl. Acad. Sci. U.S.A. 99, 13397-13402). In a typical reaction, sugar-1-phosphate (10 mM final) and enzyme (0.01-50 μM) were mixed with NTP (0.01-40 mM) in the presence of MgCl2 ([NTP]+5 mM) and 10 U/mL inorganic pyrophosphatase (Sigma, St. Louis, Mo., USA) in 100 mM Tris HCl, pH 8.0 (20 μL final volume). Typical reactions were analyzed after 10 min at 37° C. and reaction times were extended for some slow reacting sugar/NTP combinations. Reactions were stopped by the addition of 80 μL prewarmed HPLC buffer and heat inactivation (95° C., 5 min). The amount of enzyme used and the incubation time was adjusted so that the reactions never proceeded to more than 10% turnover for kinetics, or 30% for activity assays.
(§3) Product Characterization—Reactions were analyzed via analytical HPLC (Supelcosil LC18-T; Supelco, Bellefonte, Pa.; 5 μm, 250×3 mm, 40 mM phosphoric acid, pH 6.5 with triethylamine, with a gradient of 0-10% MeOH over 20 min, 0.8 mL/min, A254). Due to earlier elution, a 5 min 0% MeOH isocratic hold was performed prior to starting the gradient for CTP-containing reactions. For nucleotide sugar products with commercially available standards, HPLC peak identity was confirmed by co-elution.

RmlA Q83N = biological target: T2, RmlA Q83N (Salmonella typhimurium, UniProt P26393, Q83N); assay: Relative activity of RmlA mutant Q83N with alternative NTPs; type: biochemical, Salmonella enterica typhimurium LT2; settings: 10 mM Glucose-1-phosphate, 0.1-10 μM enzyme, 5 mM NTP, 10 mM MgCl2, pH 8.0, 37° C.
T2 construct: His6 (pET28a) (N); made in house; host or cells: Escherichia coli BL21 (DE3)
T2 sequence (P26393 whole entry Q83N): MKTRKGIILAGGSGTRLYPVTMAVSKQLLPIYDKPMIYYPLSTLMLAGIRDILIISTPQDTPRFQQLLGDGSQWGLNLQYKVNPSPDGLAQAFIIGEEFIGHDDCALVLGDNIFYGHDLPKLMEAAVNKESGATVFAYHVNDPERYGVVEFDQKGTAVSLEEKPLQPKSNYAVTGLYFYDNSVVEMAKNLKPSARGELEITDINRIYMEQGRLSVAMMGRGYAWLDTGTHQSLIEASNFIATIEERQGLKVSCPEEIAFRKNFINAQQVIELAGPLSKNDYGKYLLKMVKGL
Excerpt: as §1, §2, §3

ST0452 = ST0452 (Sulfurisphaera tokodaii, UniProt Q975F9); settings: Sulfolobus tokodaii ST0452, literature; cited from earlier work
ST0452, sequence (Q975F9 whole entry): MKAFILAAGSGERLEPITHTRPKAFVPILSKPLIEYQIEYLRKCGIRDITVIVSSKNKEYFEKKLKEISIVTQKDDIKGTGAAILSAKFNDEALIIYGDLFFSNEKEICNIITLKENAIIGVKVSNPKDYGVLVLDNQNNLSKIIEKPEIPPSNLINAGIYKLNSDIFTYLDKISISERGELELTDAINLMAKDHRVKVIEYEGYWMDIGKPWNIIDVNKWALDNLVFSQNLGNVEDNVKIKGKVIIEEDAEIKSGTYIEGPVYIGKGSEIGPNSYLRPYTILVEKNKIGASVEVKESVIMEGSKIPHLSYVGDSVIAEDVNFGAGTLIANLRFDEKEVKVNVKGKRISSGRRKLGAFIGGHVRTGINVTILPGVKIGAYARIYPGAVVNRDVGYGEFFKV

RmlA Q83D [3] = biological target: T3, RmlA Q83D (Salmonella typhimurium, UniProt P26393, Q83D); assay: Pseudo first order kinetics of RmlA Q83D mutant; type: biochemical, Salmonella enterica typhimurium LT2; settings: for kcat^app / Km: 10 mM glucose-1-phosphate, 0.05-25 μM enzyme, [NTP] + 5 mM MgCl2, 100 mM Tris-HCl pH 8.0, 37° C.; for Km: read-out: KM^app
T3 construct: using BSA as a standard, and a molecular mass of 34.6 kDa; His6 (pET28a) (N); made in house; host or cells: Escherichia coli BL21 (DE3)
T3 sequence (P26393 whole entry Q83D): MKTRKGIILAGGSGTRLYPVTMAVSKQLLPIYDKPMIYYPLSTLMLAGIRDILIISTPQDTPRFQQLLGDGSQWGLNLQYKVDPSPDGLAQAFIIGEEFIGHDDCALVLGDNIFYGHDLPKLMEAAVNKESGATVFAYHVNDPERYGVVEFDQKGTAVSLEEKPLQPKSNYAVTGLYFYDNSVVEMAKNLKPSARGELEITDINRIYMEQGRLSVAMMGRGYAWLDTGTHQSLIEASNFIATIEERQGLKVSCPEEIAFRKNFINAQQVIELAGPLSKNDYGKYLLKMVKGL
Excerpt: (§4) Driven by these mutant plasmids, the corresponding RmlA variants were subsequently expressed and purified as described above.
as §2
as §3, with “reactions.” for “reactions. For nucleotide sugar products with commercially available standards, HPLC peak identity was confirmed by co-elution.”
(§5) Kinetic Measurements—Pseudo first order kinetics were obtained by fixing glucose-1-phosphate at a saturating concentration of 10 mM (Barton et al. (2001) Nat Struct Biol 8, 545-551), and titrating NTPs. At least eight different concentrations in the range of ¼×KM to 4×KM (0.09-20 mM for dTTP, 0.2-40 mM for others) were assayed in triplicate. […] Activities were corrected for time and enzyme concentrations, and the kinetic curves were fit to the Michaelis-Menton equation using SigmaPlot with the Enzyme Kinetics module (SPSS, Chicago, Ill., USA).

RmlA Q83E = biological target: T4, RmlA Q83E (Salmonella typhimurium, UniProt P26393, Q83E); assay: Relative activity of RmlA mutant Q83E with alternative NTPs; type: biochemical, Salmonella enterica typhimurium LT2; settings: 10 mM Glucose-1-phosphate, 0.1-10 μM enzyme, 5 mM NTP, 10 mM MgCl2, pH 8.0, 37° C.
T4 construct: His6 (pET28a) (N); made in house; host or cells: Escherichia coli BL21 (DE3)
T4 sequence (P26393 whole entry Q83E): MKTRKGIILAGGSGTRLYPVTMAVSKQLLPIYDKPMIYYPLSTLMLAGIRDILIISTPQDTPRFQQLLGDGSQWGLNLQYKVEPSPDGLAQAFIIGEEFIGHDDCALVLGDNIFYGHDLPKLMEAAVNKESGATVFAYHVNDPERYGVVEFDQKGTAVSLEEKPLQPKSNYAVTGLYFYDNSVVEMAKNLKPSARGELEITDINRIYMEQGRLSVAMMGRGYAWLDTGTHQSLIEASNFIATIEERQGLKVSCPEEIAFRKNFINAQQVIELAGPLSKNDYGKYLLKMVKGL
Excerpt: as §1, §2, §3

RmlA Q83A = biological target: T5, RmlA Q83A (Salmonella typhimurium, UniProt P26393, Q83A); assay: Relative activity of RmlA mutant Q83A with alternative NTPs; type: biochemical, Salmonella enterica typhimurium LT2; settings: 10 mM Glucose-1-phosphate, 0.1-10 μM enzyme, 5 mM NTP, 10 mM MgCl2, pH 8.0, 37° C.
T5 construct: His6 (pET28a) (N); made in house; host or cells: Escherichia coli BL21 (DE3)
T5 sequence (P26393 whole entry Q83A): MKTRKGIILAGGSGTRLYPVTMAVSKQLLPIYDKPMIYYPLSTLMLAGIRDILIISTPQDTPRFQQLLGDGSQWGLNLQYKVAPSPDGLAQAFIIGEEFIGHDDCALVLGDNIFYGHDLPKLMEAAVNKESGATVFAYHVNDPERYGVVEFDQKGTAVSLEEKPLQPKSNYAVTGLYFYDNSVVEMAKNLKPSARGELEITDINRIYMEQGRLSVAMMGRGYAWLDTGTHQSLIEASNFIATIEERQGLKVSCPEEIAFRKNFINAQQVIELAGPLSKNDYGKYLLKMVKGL
Excerpt: as §1, §2, §3

RmlA Q83D [4] = biological target: T3, RmlA Q83D; assay: Relative activity of RmlA mutant Q83D with alternative NTPs; type: biochemical, Salmonella enterica typhimurium LT2; settings: 10 mM Glucose-1-phosphate, 0.1-10 μM enzyme, 5 mM NTP, 10 mM MgCl2, pH 8.0, 37° C.
Excerpt: as §1, §2, §3

RmlA Q83S [5] = biological target: T1, RmlA Q83S; assay: Pseudo first order kinetics of RmlA Q83S mutant; type: biochemical, Salmonella enterica typhimurium LT2; settings: 10 mM glucose-1-phosphate, 0.05-25 μM enzyme, [NTP] + 5 mM MgCl2, 100 mM Tris-HCl pH 8.0, 37° C.; for Km: read-out: KM^app
Excerpt: as §4, §2
as §3, with “reactions.” for “reactions. For nucleotide sugar products with commercially available standards, HPLC peak identity was confirmed by co-elution.”
as §5

[6] = biological target: wt RmlA (glucose-1-phosphate thymidylyltransferase) (Salmonella typhimurium, UniProt P26393)
wt RmlA (glucose-1-phosphate thymidylyltransferase), sequence (P26393 whole entry): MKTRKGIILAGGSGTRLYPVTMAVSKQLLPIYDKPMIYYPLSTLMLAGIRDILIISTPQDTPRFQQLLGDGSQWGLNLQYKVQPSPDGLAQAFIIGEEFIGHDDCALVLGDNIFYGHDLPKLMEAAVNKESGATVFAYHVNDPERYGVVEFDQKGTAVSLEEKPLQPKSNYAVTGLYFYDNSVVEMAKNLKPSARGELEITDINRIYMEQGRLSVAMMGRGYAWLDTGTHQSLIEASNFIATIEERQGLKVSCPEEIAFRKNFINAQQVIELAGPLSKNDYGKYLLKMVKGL
Procedure: as §2
as §3, with “reactions.” for “reactions. For nucleotide sugar products with commercially available standards, HPLC peak identity was confirmed by co-elution.”
as §5

Row | Compound | turnover of glucose-1-phosphate with NTP by Usp [1] | Relative activity of Q83S as compared to wt RmlA (RmlA Q83S [2]) | Relative activity of Q83N as compared to wt RmlA (RmlA Q83N) | utilization of NTP by ST0452 (ST0452) | improvement in apparent KM, Q83D versus wild-type (RmlA Q83D [3]) [fold] | kcat^app (RmlA Q83D [3]) [s⁻¹] | Km (RmlA Q83D [3]) [µM] | Relative activity of Q83E as compared to wt RmlA (RmlA Q83E) | Relative activity of Q83A as compared to wt RmlA (RmlA Q83A) | Relative activity of Q83D as compared to wt RmlA (RmlA Q83D [4]) | kcat^app (RmlA Q83S [5]) [s⁻¹] | Km (RmlA Q83S [5]) [µM] | reduction in the apparent RmlA specificity constant (kcat/KM) versus dTTP [6] | increase in KM, Q83D versus wild-type (RmlA Q83D [3]) [fold] | kcat^app ([6]; Wild-type RmlA, 10 mM glucose-1-phosphate, 0.05-25 μM enzyme, [NTP] + 5 mM MgCl2, 100 mM Tris-HCl pH 8.0, 37° C.) [s⁻¹] | Km ([6]; read-out: KM^app, Wild-type RmlA, 10 mM glucose-1-phosphate, 0.05-25 μM enzyme, [NTP] + 5 mM MgCl2, 100 mM Tris-HCl pH 8.0, 37° C.) [µM] | reduction in the apparent RmlA specificity constant (kcat/KM) versus dTTP ([6]; wild-type RmlA, glucose-1-phosphate) [fold]
1 | Nc1nc2c(ncn2[C@@H]2O[C@H](COP(=O)(O)OP(=O)(O)OP(=O)(O)O)[C@@H](O)[C@H]2O)c(=O)[nH]1 [GTP, guanosine-5′-triphosphate] | turn over | 2.2 | 0.2 | could not utilize | 6.5 | 0.213 ± 0.015 | 1300 ± 400 | 2.8 | 0.7 | 3.7 | – | – | – | – | – | – | –
2 | Nc1ncnc2c1ncn2[C@H]1C[C@H](O)[C@@H](COP(=O)(O)OP(=O)(O)OP(=O)(O)O)O1 [dATP, 2′-deoxyadenosine-5′-triphosphate] | – | 7.9 | 3.8 | good activity | – | – | – | 0.4 | 4.6 | 0.8 | 5.33 ± 0.333 | 1100 ± 300 | – | – | – | – | –
3 | Nc1ncnc2c1ncn2[C@@H]1O[C@H](COP(=O)(O)OP(=O)(O)OP(=O)(O)O)[C@@H](O)[C@H]1O [ATP, adenosine-5′-triphosphate] | turn over | 14.0 | 6.5 | could not utilize | – | – | – | 0.7 | 7.9 | 0.6 | 0.48 ± 0.0233 | 3400 ± 600 | > 15,000 fold | – | – | – | –
4 | Cc1cn([C@H]2C[C@H](O)[C@@H](COP(=O)(O)OP(=O)(O)OP(=O)(O)O)O2)c(=O)[nH]c1=O [dTTP, 2′deoxythymidine-5′-triphosphate] | turn over | 0.3 | 0.3 | good activity | – | 3.62 ± 0.233 | 6200 ± 1200 | 1.0 | 0.2 | 0.2 | 6.33 ± 0.5 | 2400 ± 600 | – | 21 | 30.83 ± 0.667 | 290 ± 40 | –
5 | Nc1ccn([C@H]2C[C@H](O)[C@@H](COP(=O)(O)OP(=O)(O)OP(=O)(O)O)O2)c(=O)n1 [dCTP, 2′-deoxycytidine-5′-triphosphate] | – | 1.4 | – | good activity | – | – | – | 1.1 | 0.8 | 1.2 | – | – | – | – | – | – | –
6 | Nc1nc2c(ncn2[C@H]2C[C@H](O)[C@@H](COP(=O)(O)OP(=O)(O)OP(=O)(O)O)O2)c(=O)[nH]1 [dGTP, 2′-deoxyguanosine-5′-triphosphate] | – | 0.6 | 0.1 | good activity | – | 5 ± 0.333 | 11500 ± 1800 | 1.7 | 0.2 | 1.6 | – | – | – | – | – | – | –
7 | Nc1ccn([C@@H]2O[C@H](COP(=O)(O)OP(=O)(O)OP(=O)(O)O)[C@@H](O)[C@H]2O)c(=O)n1 [CTP, cytidine-5′-triphosphate] | turn over | 1.5 | 0.7 | could not utilize | – | – | – | 0.8 | 1.3 | 0.2 | – | – | – | – | – | – | –
8 | O=c1ccn([C@@H]2O[C@H](COP(=O)(O)OP(=O)(O)OP(=O)(O)O)[C@@H](O)[C@H]2O)c(=O)[nH]1 [UTP, uridine-5′-triphosphate] | turn over | 0.2 | 0.2 | good activity | – | – | – | 1.3 | 0.2 | 0.2 | – | – | – | – | – | – | ~12
